From the NIST ThermoML archive (doi:10.1021/je400184t)
Numbers after ± are expanded uncertainties.

Assay: xn = mol fraction of the nth substance listed
Conditions: 101 kPa, Liquid, Vibrating tube method

For `CN(CCO)CCO` [N-methyldiethanolamine] + c1ccncc1, which mass density (288.15 K, x2 = 0) is on record?
The mass density was 1046.36 ± 0.21 kg/m3.

What about the mass density (288.15 K, x2 = 0.07502) of the same molecule?
The mass density was 1041.45 ± 0.21 kg/m3.

What about the mass density (288.15 K, x2 = 0.1844) of the same molecule?
Its mass density is 1034.44 ± 0.2 kg/m3.

What about the mass density (288.15 K, x2 = 0.3178) of the same molecule?
Its mass density is 1025.81 ± 0.2 kg/m3.

What about the mass density (288.15 K, x2 = 0.4447) of the same molecule?
Its mass density is 1018 ± 0.2 kg/m3.

What about the mass density (288.15 K, x2 = 0.5708) of the same molecule?
Its mass density is 1010.68 ± 0.2 kg/m3.

What about the mass density (288.15 K, x2 = 0.6945) of the same molecule?
The mass density was 1003.92 ± 0.2 kg/m3.

What about the mass density (288.15 K, x2 = 0.8095) of the same molecule?
The mass density was 997.843 ± 0.2 kg/m3.

What about the mass density (288.15 K, x2 = 0.8886) of the same molecule?
Its mass density is 993.774 ± 0.2 kg/m3.

What about the mass density (288.15 K, x2 = 0.9597) of the same molecule?
The mass density was 990.221 ± 0.2 kg/m3.

And the mass density (298.15 K, x2 = 0)?
The mass density was 1036.81 ± 0.21 kg/m3.

What about the mass density (298.15 K, x2 = 0.04) of the same molecule?
The mass density was 1034.22 ± 0.21 kg/m3.

And the mass density (298.15 K, x2 = 0.1)?
The mass density was 1030.39 ± 0.2 kg/m3.

And the mass density (298.15 K, x2 = 0.2183)?
The mass density was 1023.03 ± 0.2 kg/m3.

And the mass density (298.15 K, x2 = 0.33)?
Its mass density is 1016.1 ± 0.2 kg/m3.

What about the mass density (298.15 K, x2 = 0.5265) of the same molecule?
Its mass density is 1004.45 ± 0.2 kg/m3.

And the mass density (298.15 K, x2 = 0.6)?
Its mass density is 1000.15 ± 0.2 kg/m3.

And the mass density (298.15 K, x2 = 0.7687)?
The mass density was 990.603 ± 0.2 kg/m3.

And the mass density (298.15 K, x2 = 0.9059)?
Its mass density is 983.032 ± 0.2 kg/m3.

And the mass density (298.15 K, x2 = 0.9582)?
Its mass density is 980.414 ± 0.2 kg/m3.

And the mass density (353.15 K, x2 = 0)?
The mass density was 994.015 ± 0.2 kg/m3.

And the mass density (353.15 K, x2 = 0.01699)?
Its mass density is 992.733 ± 0.2 kg/m3.

What about the mass density (353.15 K, x2 = 0.07502) of the same molecule?
The mass density was 988.525 ± 0.2 kg/m3.

And the mass density (353.15 K, x2 = 0.1844)?
Its mass density is 980.64 ± 0.2 kg/m3.

And the mass density (353.15 K, x2 = 0.3178)?
Its mass density is 971.05 ± 0.2 kg/m3.

And the mass density (353.15 K, x2 = 0.4447)?
Its mass density is 961.905 ± 0.2 kg/m3.

And the mass density (353.15 K, x2 = 0.5708)?
Its mass density is 952.805 ± 0.21 kg/m3.

What about the mass density (353.15 K, x2 = 0.6945) of the same molecule?
The mass density was 943.917 ± 0.21 kg/m3.

What about the mass density (353.15 K, x2 = 0.8095) of the same molecule?
The mass density was 935.616 ± 0.21 kg/m3.

What about the mass density (353.15 K, x2 = 0.8886) of the same molecule?
The mass density was 930.006 ± 0.21 kg/m3.

And the mass density (353.15 K, x2 = 0.9597)?
Its mass density is 924.867 ± 0.21 kg/m3.

Which mass density (298.15 K, x2 = 0) does the source give for `Cc1ccccc1` [toluene] + CCCCCCC here?
Its mass density is 862.222 ± 0.21 kg/m3.

What about the mass density (298.15 K, x2 = 0.00177) of the same molecule?
Its mass density is 861.767 ± 0.21 kg/m3.

And the mass density (298.15 K, x2 = 0.01118)?
Its mass density is 859.353 ± 0.21 kg/m3.

What about the mass density (298.15 K, x2 = 0.0267) of the same molecule?
Its mass density is 855.387 ± 0.22 kg/m3.

And the mass density (298.15 K, x2 = 0.05849)?
Its mass density is 847.515 ± 0.22 kg/m3.

What about the mass density (298.15 K, x2 = 0.1297) of the same molecule?
Its mass density is 830.567 ± 0.22 kg/m3.

What about the mass density (298.15 K, x2 = 0.2059) of the same molecule?
Its mass density is 813.369 ± 0.22 kg/m3.

And the mass density (298.15 K, x2 = 0.2752)?
Its mass density is 798.596 ± 0.23 kg/m3.

And the mass density (298.15 K, x2 = 0.3604)?
Its mass density is 781.402 ± 0.23 kg/m3.

What about the mass density (298.15 K, x2 = 0.4494) of the same molecule?
The mass density was 764.554 ± 0.23 kg/m3.

What about the mass density (298.15 K, x2 = 0.4718) of the same molecule?
Its mass density is 760.485 ± 0.24 kg/m3.

And the mass density (298.15 K, x2 = 0.6659)?
Its mass density is 727.559 ± 0.25 kg/m3.

And the mass density (298.15 K, x2 = 0.8166)?
The mass density was 704.661 ± 0.25 kg/m3.

What about the mass density (298.15 K, x2 = 0.9094) of the same molecule?
Its mass density is 691.588 ± 0.26 kg/m3.

What about the mass density (298.15 K, x2 = 0.9624) of the same molecule?
Its mass density is 684.471 ± 0.26 kg/m3.

And the mass density (298.15 K, x2 = 0.9968)?
The mass density was 679.955 ± 0.26 kg/m3.

Which results are given for `NCCO` [2-aminoethan-1-ol] + c1ccncc1?
mass density (288.15 K, x2 = 0): 1019.87 ± 0.2 kg/m3; mass density (288.15 K, x2 = 0.02208): 1018.83 ± 0.2 kg/m3; mass density (288.15 K, x2 = 0.03932): 1018.01 ± 0.2 kg/m3; mass density (288.15 K, x2 = 0.06973): 1016.73 ± 0.2 kg/m3; mass density (288.15 K, x2 = 0.1369): 1014.03 ± 0.2 kg/m3; mass density (288.15 K, x2 = 0.2147): 1011.06 ± 0.2 kg/m3; mass density (288.15 K, x2 = 0.3455): 1006.12 ± 0.2 kg/m3; mass density (288.15 K, x2 = 0.4414): 1002.7 ± 0.2 kg/m3; mass density (288.15 K, x2 = 0.5819): 998.105 ± 0.2 kg/m3; mass density (288.15 K, x2 = 0.6767): 995.328 ± 0.2 kg/m3; mass density (288.15 K, x2 = 0.79): 992.252 ± 0.2 kg/m3; mass density (288.15 K, x2 = 0.878): 990.097 ± 0.2 kg/m3; mass density (288.15 K, x2 = 0.96): 988.258 ± 0.2 kg/m3; mass density (298.15 K, x2 = 0): 1012.12 ± 0.2 kg/m3; mass density (298.15 K, x2 = 0.01329): 1011.37 ± 0.2 kg/m3; mass density (298.15 K, x2 = 0.03932): 1010.09 ± 0.2 kg/m3; mass density (298.15 K, x2 = 0.06973): 1008.71 ± 0.2 kg/m3; mass density (298.15 K, x2 = 0.1369): 1005.81 ± 0.2 kg/m3; mass density (298.15 K, x2 = 0.2147): 1002.59 ± 0.2 kg/m3; mass density (298.15 K, x2 = 0.3455): 997.334 ± 0.2 kg/m3; mass density (298.15 K, x2 = 0.4414): 993.687 ± 0.2 kg/m3; mass density (298.15 K, x2 = 0.5819): 988.794 ± 0.2 kg/m3; mass density (298.15 K, x2 = 0.6767): 985.804 ± 0.2 kg/m3; mass density (298.15 K, x2 = 0.79): 982.566 ± 0.2 kg/m3; mass density (298.15 K, x2 = 0.878): 980.237 ± 0.2 kg/m3; mass density (298.15 K, x2 = 0.9817): 977.805 ± 0.2 kg/m3; mass density (353.15 K, x2 = 0): 968.332 ± 0.2 kg/m3; mass density (353.15 K, x2 = 0.02208): 966.667 ± 0.2 kg/m3; mass density (353.15 K, x2 = 0.03932): 965.353 ± 0.2 kg/m3; mass density (353.15 K, x2 = 0.06973): 963.408 ± 0.2 kg/m3; mass density (353.15 K, x2 = 0.1369): 959.323 ± 0.2 kg/m3; mass density (353.15 K, x2 = 0.2147): 954.908 ± 0.2 kg/m3; mass density (353.15 K, x2 = 0.3455): 947.883 ± 0.21 kg/m3; mass density (353.15 K, x2 = 0.4414): 943.004 ± 0.21 kg/m3; mass density (353.15 K, x2 = 0.5819): 936.439 ± 0.21 kg/m3; mass density (353.15 K, x2 = 0.6767): 932.426 ± 0.21 kg/m3; mass density (353.15 K, x2 = 0.79): 928.035 ± 0.21 kg/m3; mass density (353.15 K, x2 = 0.878): 924.973 ± 0.21 kg/m3; mass density (353.15 K, x2 = 0.96): 922.401 ± 0.21 kg/m3
